Laboratory results as given in patent US20130023573A1, “ALPHA-2 […] TREATING VISUAL DISORDERS MEDIATED BY CENTRAL VISUAL P[…] THE EYE” (priority 2011, published 2013).

Assays:
[1] = test system: rat visual cortex slices; experiment: Long-term potentiation in visual cortex slice; format: cell-based; conditions: LTP at 30 min after induction; for threshold dose for dose-dependent facilitation of LTP: rat visual cortex slices, drug infused 20 min before theta burst stimulation
Experimental: Following decapitation of the anesthetized rat, the brain was rapidly removed and immersed in ice-cold artificial cerebrospinal fluid (ACSF) containing (in mM) NaCl 124, KCl 3, KH2PO4 1.25, CaCl2 3.4, MgSO4 2.5, NaHCO3 26, and D-glucose 10. A block of visual cortex was created by removing the frontal ⅔ portion of the brain and the cerebellum. Coronal visual cortex slices of 350 μm thick were prepared from young adult (200-300 g) male Sprague-Dawley rats using a vibratome (VT 1000 S; Leica). The slices were maintained in an interface recording chamber perfused with preheated ACSF. Slices were continuously perfused with this solution at a rate of 1.00-1.50 ml/min while the surface of the slices was exposed to warm, humidified […] and maintained at 31±1° C. Visual cortex slices were allowed to recover for 1 hr before recording began. A single stimulating and recording electrode was placed in layer IV and III, respectively, to generate and record field excitatory postsynaptic potentials (fEPSPs). Pulses were administered at 0.05 Hz using a current that produced a fEPSP that is 50% of the maximum spike free response. An input-output (IO) curve was done to determine the stimulation needed to achieve a stable baseline. Following a 15 min stable baseline recording period, a train of 5 theta bursts (each burst containing four pulses at 100 Hz with an inter-burst interval of 200 ms) was delivered to the slice. This was repeated 2 additional times with a 1 minute inter-train interval, and the level of LTP was recorded for at least 30 min. Changes in amplitude of the synaptic response were used to measure the extent of LTP, since the amplitude was determined to be the more consistent parameter than the slope of the response. Control LTP values were obtained from slices not treated with drug. Different slices were used to study drug effects on LTP. Compound 4-bromo-N-(imidazolidin-2-ylidene)-1H-benzimidazol-5-amine or (S)-(3-(1-(1H-imidazol-4-yl)ethyl)-2-methylphenyl)methanol) was infused after 15 min baseline recording for a duration of 20 minutes followed by LTP induction. Drug washout began 5 minutes after tetanization. Recording of the amplitude before, during, and after drug infusion was continuously done at 0.05 Hz. Statistical comparisons were done with LTP values recorded at 30 minutes after induction for drug-treated vs control slices (non-paired t-test).
In brief, brain slices from primary visual cortex were prepared and recording of evoked field responses was done as described in the ‘general procedure’ section. A typical LTP run began with establishing a stable baseline, then treatment for 20 min with 4-bromo-N-(imidazolidin-2-ylidene)-1H-benzimidazol-5-amine followed by LTP induction via brief high-frequency theta burst stimulation (TBS) and drug washout 5 min after TBS, and ended after monitoring the amount of LTP for at least 30 min. Control LTP was measured in a group of separate slices within the same chamber infused with aCSF. The amount of LTP present at 30 min after induction was used to compare drug effects at different concentrations relative to the control group. […] The percent increase in LTP was shown relative to the pre-LTP baseline for each condition.
The percent increase in LTP was shown relative to the pre-LTP baseline for each condition.

[2] = rats, after oral dose of brimonidine tartrate (Acheampong et al., Xenobiotica 2007); cited from earlier work

Row | SMILES | LTP compared to control slices ([1]; 3 nM) | LTP compared to control slices ([1]; 30 nM) | LTP compared to control slices ([1]; 300 nM) | threshold dose for dose-dependent facilitation of LTP [1] [nM] | amount found in urine [2] | LTP compared to control slices ([1]; 100 nM)
1 | Brc1c(N=C2NCCN2)ccc2[nH]cnc12 [4-bromo-N-(imidazolidin-2-ylidene)-1H-benzimidazol-5-amine] | significantly facilitated | significantly facilitated | significantly facilitated | 3 | trace amounts | 
2 | Cc1c(CO)cccc1[C@H](C)c1c[nH]cn1 [(S)-(3-(1-(1H-imidazol-4-yl)ethyl)-2-methylphenyl)methanol] |  |  | significantly facilitated | 100 |  | significantly facilitated
